According to US9540405B2, “Diaminophenothiazinium derivatives for labelling biomolecules, method and substrate for labelling oligonucleotides, and oligonucleotides obtained” (UNIVERSITE CLAUDE BERNARD LYON I, priority 2012, dated 2017):

Assay: Stability study in basic medium (0.05M K2CO3 in methanol)
Assay type: physicochemical

SMILES: CCCCN(CCCC)c1ccc2nc3ccc(N(CCO)CCO)cc3[s+]c2c1.[I-] [Ra═Rb═butyl and Rc═Rd═ethanol, (dibutylamino)(diethanolamino)phenothiazinium iodide]
- Stability after treatment in 0.05M K2CO3/MeOH (4 h): 73%
- Stability after treatment in 0.05M K2CO3/MeOH (17 h): 25%

SMILES: CCCCN(CCCCO)c1ccc2nc3ccc(N(CCCC)CCCCO)cc3[s+]c2c1.[I-] [Ra═Rc═butyl and Rb═Rd═butanol, bis(butylbutanolamino)phenothiazinium iodide]
- Stability after treatment in 0.05M K2CO3/MeOH (4 h): 91%
- Stability after treatment in 0.05M K2CO3/MeOH (17 h): 66%
